Results from publication PMC5218480 (PLoS ONE, 2017).

Tested on: MV-4-11 cells
Assay: Gene expression microarray analysis (Affymetrix PrimeView) and GSEA
Format: cell-based, human
Design: RFU PODN (11730768_x_at) / Fold change /veh PODN (11730768_x_at) / RFU LINC00158 (11744669_a_at) / Fold change /veh LINC00158 (11744669_a_at) / RFU DUSP10 (11751237_a_at) / Fold change /veh DUSP10 (11751237_a_at) / RFU ID3 (11757404_x_at) / Fold change /veh ID3 (11757404_x_at) / RFU PLEKHG5 (11737974_s_at) / Fold change /veh PLEKHG5 (11737974_s_at) / RFU LRRC4B (11730491_at) / Fold change /veh LRRC4B (11730491_at) / RFU GIMAP4 (11747438_a_at) / Fold change /veh GIMAP4 (11747438_a_at) / RFU KRT8 (11758183_x_at) / Fold change /veh KRT8 (11758183_x_at) / RFU CNN1 (11734310_a_at) / Fold change /veh CNN1 (11734310_a_at) / RFU VPS37D (11726825_at) / Fold change /veh VPS37D (11726825_at) / RFU C10orf10 (11716522_x_at) / Fold change /veh C10orf10 (11716522_x_at) / RFU KIR2DL2 /// KIR2DL4 /// KIR2DL5A /// KIR2DL5B /// KIR2DS1 /// KIR2DS2 /// KIR2DS3 /// KIR2DS4 /// KIR3DL3 /// KIR3DL3 /// KIR3DS1 (11738374_at) / Fold change /veh KIR2DL2 /// KIR2DL4 /// KIR2DL5A /// KIR2DL5B /// KIR2DS1 /// KIR2DS2 /// KIR2DS3 /// KIR2DS4 /// KIR3DL3 /// KIR3DL3 /// KIR3DS1 (11738374_at) / RFU C1QL1 (11718748_at) / Fold change /veh C1QL1 (11718748_at) / RFU TMPRSS4 (11747572_a_at) / Fold change /veh TMPRSS4 (11747572_a_at) / RFU HAMP (11756126_x_at) / Fold change /veh HAMP (11756126_x_at) / RFU RNFT2 (11725882_a_at) / Fold change /veh RNFT2 (11725882_a_at) / RFU NR4A2 (11747474_a_at) / Fold change /veh NR4A2 (11747474_a_at) / RFU ABCC12 (11746883_a_at) / Fold change /veh ABCC12 (11746883_a_at) / RFU TMEM136 (11760407_x_at) / Fold change /veh TMEM136 (11760407_x_at) / RFU CLDN22 /// WWC2 (11732394_at) / Fold change /veh CLDN22 /// WWC2 (11732394_at) / RFU HLA-DPB1 (11760878_x_at) / Fold change /veh HLA-DPB1 (11760878_x_at) / RFU SPINT1 (11716480_a_at) / Fold change /veh SPINT1 (11716480_a_at) / RFU GAP43 (11754022_s_at) / Fold change /veh GAP43 (11754022_s_at) / RFU A4GNT (11735810_at) / Fold change /veh A4GNT (11735810_at) / RFU PRB3 (11715151_x_at) / Fold change /veh PRB3 (11715151_x_at) / RFU TUBB4B (11761932_at) / Fold change /veh TUBB4B (11761932_at) / RFU CAPN14 (11732068_a_at) / Fold change /veh CAPN14 (11732068_a_at) / RFU TMCC2 (11721928_a_at) / Fold change /veh TMCC2 (11721928_a_at) / RFU IRGQ (11745062_a_at) / Fold change /veh IRGQ (11745062_a_at) / RFU FAM174B (11720279_a_at) / Fold change /veh FAM174B (11720279_a_at) / RFU TMPRSS4 (11748680_a_at) / Fold change /veh TMPRSS4 (11748680_a_at) / RFU FAM212B (11763350_a_at) / Fold change /veh FAM212B (11763350_a_at) / RFU PLEKHG5 (11743358_a_at) / Fold change /veh PLEKHG5 (11743358_a_at) / RFU ZSCAN30 (11745921_a_at) / Fold change /veh ZSCAN30 (11745921_a_at) / RFU CMKLR1 (11741424_a_at) / Fold change /veh CMKLR1 (11741424_a_at) / RFU LOC101060620 /// MAPK8IP1 (11723275_at) / Fold change /veh LOC101060620 /// MAPK8IP1 (11723275_at) / RFU SPTSSB (11747773_x_at) / Fold change /veh SPTSSB (11747773_x_at) / RFU PRSS12 (11739890_at) / Fold change /veh PRSS12 (11739890_at) / RFU BIN1 (11741810_x_at) / Fold change /veh BIN1 (11741810_x_at) / RFU WNT11 (11732464_a_at) / Fold change /veh WNT11 (11732464_a_at) / RFU C10orf10 (11716521_a_at) / Fold change /veh C10orf10 (11716521_a_at) / RFU C5orf56 (11738089_at) / Fold change /veh C5orf56 (11738089_at) / RFU CYB561 (11721691_x_at) / Fold change /veh CYB561 (11721691_x_at) / RFU ANKRD19P (11752326_a_at) / Fold change /veh ANKRD19P (11752326_a_at) / RFU OR2T12 /// OR2T33 /// OR2T8 (11738714_s_at) / Fold change /veh OR2T12 /// OR2T33 /// OR2T8 (11738714_s_at) / RFU VCAN (11748164_a_at) / Fold change /veh VCAN (11748164_a_at) / RFU JSRP1 (11732532_at) / Fold change /veh JSRP1 (11732532_at) / RFU KRTAP10-11 (11738290_x_at) / Fold change /veh KRTAP10-11 (11738290_x_at) / RFU MYO3A (11730013_a_at) / Fold change /veh MYO3A (11730013_a_at) / RFU EBF3 (11725865_a_at) / Fold change /veh EBF3 (11725865_a_at) / RFU CAMK2N1 (11719241_x_at) / Fold change /veh CAMK2N1 (11719241_x_at) / RFU C5orf56 (11738088_a_at) / Fold change /veh C5orf56 (11738088_a_at) / RFU OLFML3 (11715873_a_at) / Fold change /veh OLFML3 (11715873_a_at) / RFU LOC100653217 /// NTM (11731650_a_at) / Fold change /veh LOC100653217 /// NTM (11731650_a_at) / RFU MAPK11 (11762145_a_at) / Fold change /veh MAPK11 (11762145_a_at) / RFU FIZ1 (11724087_x_at) / Fold change /veh FIZ1 (11724087_x_at) / RFU OASL (11726364_x_at) / Fold change /veh OASL (11726364_x_at) / RFU SOX15 (11748057_x_at) / Fold change /veh SOX15 (11748057_x_at) / RFU CD79A (11719716_a_at) / Fold change /veh CD79A (11719716_a_at) / RFU HIST1H1D (11736915_at) / Fold change /veh HIST1H1D (11736915_at) / RFU CASKIN2 (11723855_a_at) / Fold change /veh CASKIN2 (11723855_a_at) / RFU LOC730098 (11760151_x_at) / Fold change /veh LOC730098 (11760151_x_at) / RFU OR4N2 (11742367_at) / Fold change /veh OR4N2 (11742367_at) / RFU PRRT2 (11749266_a_at) / Fold change /veh PRRT2 (11749266_a_at) / RFU SNX32 (11753110_a_at) / Fold change /veh SNX32 (11753110_a_at) / RFU CDHR5 (11726645_a_at) / Fold change /veh CDHR5 (11726645_a_at) / RFU RCAN1 (11760418_a_at) / Fold change /veh RCAN1 (11760418_a_at) / RFU FAM167A (11723789_a_at) / Fold change /veh FAM167A (11723789_a_at) / RFU FAM26E (11764081_at) / Fold change /veh FAM26E (11764081_at) / RFU ISYNA1 (11749810_s_at) / Fold change /veh ISYNA1 (11749810_s_at) / RFU ACY1 (11761880_at) / Fold change /veh ACY1 (11761880_at) / RFU 11764098_at / Fold change /veh 11764098_at / RFU SAMD14 (11745864_x_at) / Fold change /veh SAMD14 (11745864_x_at) / RFU NPB (11741838_a_at) / Fold change /veh NPB (11741838_a_at) / RFU TMPRSS6 (11731388_a_at) / Fold change /veh TMPRSS6 (11731388_a_at) / RFU KRTAP10-2 (11738614_at) / Fold change /veh KRTAP10-2 (11738614_at) / RFU ARHGAP8 /// PRR5-ARHGAP8 (11727945_x_at) / Fold change /veh ARHGAP8 /// PRR5-ARHGAP8 (11727945_x_at) / RFU KRTAP5-7 /// NADSYN1 (11734609_at) / Fold change /veh KRTAP5-7 /// NADSYN1 (11734609_at) / RFU RASL12 (11751679_a_at) / Fold change /veh RASL12 (11751679_a_at) / RFU CDKN2B (11736163_a_at) / Fold change /veh CDKN2B (11736163_a_at) / RFU PRF1 (11729649_at) / Fold change /veh PRF1 (11729649_at) / RFU, ZNF638 /// ZNF638-IT1 / Fold change vs veh, ZNF638 /// ZNF638-IT1 / RFU, PANK3 / Fold change vs veh, PANK3 / RFU, SH3YL1 / Fold change vs veh, SH3YL1 / RFU, ZEB2 / Fold change vs veh, ZEB2 / RFU, NRIP1 / Fold change vs veh, NRIP1 / RFU, PTTG1IP / Fold change vs veh, PTTG1IP / RFU, CAPN2 / Fold change vs veh, CAPN2 / RFU, MED14 / Fold change vs veh, MED14 / RFU, SNORA58 / Fold change vs veh, SNORA58 / RFU, C1orf63 / Fold change vs veh, C1orf63 / RFU, LRRFIP1 / Fold change vs veh, LRRFIP1 / RFU, NDUFAF7 / Fold change vs veh, NDUFAF7 / RFU, SLC12A2 / Fold change vs veh, SLC12A2 / RFU, IBTK / Fold change vs veh, IBTK / RFU, ESF1 / Fold change vs veh, ESF1 / Fold change vs veh, TMEM50B / RFU, TAOK1 / Fold change vs veh, TAOK1 / RFU, ACBD3 / Fold change vs veh, ACBD3 / RFU, TMA16 / Fold change vs veh, TMA16 / RFU, RWDD3 / Fold change vs veh, RWDD3 / RFU, BCAT1 / Fold change vs veh, BCAT1 / RFU, EDEM3 / Fold change vs veh, EDEM3 / RFU, TMEM33 / Fold change vs veh, TMEM33 / RFU, WDR75 / Fold change vs veh, WDR75 / RFU, AHCTF1 / Fold change vs veh, AHCTF1 / RFU, TFRC / Fold change vs veh, TFRC / RFU, ZDHHC17 / Fold change vs veh, ZDHHC17 / RFU, NOM1 / Fold change vs veh, NOM1 / RFU, ARL8B / Fold change vs veh, ARL8B / RFU, ZBTB11 / Fold change vs veh, ZBTB11 / RFU, TAMM41 / Fold change vs veh, TAMM41 / RFU, KIAA1704 /// LOC100996395 / Fold change vs veh, KIAA1704 /// LOC100996395 / RFU, ING1 / Fold change vs veh, ING1 / RFU, TRMT61B / Fold change vs veh, TRMT61B / RFU, FUBP3 / Fold change vs veh, FUBP3 / RFU, TP53 / Fold change vs veh, TP53 / RFU, TNKS2 / Fold change vs veh, TNKS2 / RFU, ZFP14 / Fold change vs veh, ZFP14 / RFU, ACTR2 / Fold change vs veh, ACTR2 / RFU, PPP3R1 / Fold change vs veh, PPP3R1 / RFU, PIK3R1 / Fold change vs veh, PIK3R1 / RFU, HNRNPA1 / Fold change vs veh, HNRNPA1 / RFU, RNF170 / Fold change vs veh, RNF170 / RFU, ZNF28 / Fold change vs veh, ZNF28 / RFU, RNGTT / Fold change vs veh, RNGTT / RFU, OGT / Fold change vs veh, OGT / RFU, BRD1 / Fold change vs veh, BRD1 / RFU, MARS / Fold change vs veh, MARS / RFU, ZNF655 / Fold change vs veh, ZNF655 / RFU, FAHD1 / Fold change vs veh, FAHD1 / RFU, BDP1 / Fold change vs veh, BDP1 / RFU, LRRCC1 / Fold change vs veh, LRRCC1 / RFU, ARID1A / Fold change vs veh, ARID1A / RFU, ZNF146 / Fold change vs veh, ZNF146 / RFU, ZNF330 / Fold change vs veh, ZNF330 / RFU, GPN3 / Fold change vs veh, GPN3 / RFU, C9orf123 / Fold change vs veh, C9orf123 / RFU, N4BP2L2 / Fold change vs veh, N4BP2L2 / RFU, ARFIP1 / Fold change vs veh, ARFIP1 / RFU, FAM179B / Fold change vs veh, FAM179B / RFU, BCL10 / Fold change vs veh, BCL10 / RFU, UHRF1BP1L / Fold change vs veh, UHRF1BP1L / RFU, BET1 / Fold change vs veh, BET1 / RFU, CNOT2 / Fold change vs veh, CNOT2 / RFU, ZNF268 / Fold change vs veh, ZNF268 / Fold change vs veh, ZNF507 / RFU, DGCR2 / Fold change vs veh, DGCR2 / RFU, WDSUB1 / Fold change vs veh, WDSUB1 / Fold change vs veh, HSP90B1 /// MIR3652 / RFU, ADSS / Fold change vs veh, ADSS / RFU, GK / Fold change vs veh, GK / RFU, ZNF148 / Fold change vs veh, ZNF148 / RFU, TAF9 / Fold change vs veh, TAF9 / RFU, SLC1A5 / Fold change vs veh, SLC1A5 / RFU, SLMO2 / Fold change vs veh, SLMO2 / RFU, ABCC4 / Fold change vs veh, ABCC4 / RFU, LOC101060439 /// RAP1B / Fold change vs veh, LOC101060439 /// RAP1B / RFU, RFX7 / Fold change vs veh, RFX7 / RFU, GTPBP10 / Fold change vs veh, GTPBP10 / RFU, CNEP1R1 / Fold change vs veh, CNEP1R1 / RFU, BIVM-ERCC5 /// ERCC5 / Fold change vs veh, BIVM-ERCC5 /// ERCC5 / RFU, ILF3 / Fold change vs veh, ILF3 / RFU 11762660_at / Fold change /veh 11762660_at / RFU VCAN (11757783_s_at) / Fold change /veh VCAN (11757783_s_at) / RFU DDX43 (11728927_at) / Fold change /veh DDX43 (11728927_at) / RFU KRT8 (11758188_x_at) / Fold change /veh KRT8 (11758188_x_at) / RFU NKD1 (11759106_at) / Fold change /veh NKD1 (11759106_at) / RFU SRD5A1 (11742802_a_at) / Fold change /veh SRD5A1 (11742802_a_at) / RFU TPSAB1 /// TPSB2 (11721975_s_at) / Fold change /veh TPSAB1 /// TPSB2 (11721975_s_at) / RFU GSTM3 (11746129_a_at) / Fold change /veh GSTM3 (11746129_a_at) / RFU IL23R (11737362_x_at) / Fold change /veh IL23R (11737362_x_at) / RFU TMEM51 (11727254_a_at) / Fold change /veh TMEM51 (11727254_a_at) / RFU PIWIL2 (11732686_x_at) / Fold change /veh PIWIL2 (11732686_x_at) / RFU ORM1 (11744905_x_at) / Fold change /veh ORM1 (11744905_x_at) / RFU CCDC152 (11743942_at) / Fold change /veh CCDC152 (11743942_at) / RFU ECM1 (11717891_a_at) / Fold change /veh ECM1 (11717891_a_at) / RFU IL23R (11748794_a_at) / Fold change /veh IL23R (11748794_a_at) / RFU TNFAIP8L3 (11732012_x_at) / Fold change /veh TNFAIP8L3 (11732012_x_at) / RFU MBOAT4 (11741988_at) / Fold change /veh MBOAT4 (11741988_at) / RFU 11764193_at / Fold change /veh 11764193_at / RFU TMEM53 (11763286_at) / Fold change /veh TMEM53 (11763286_at) / RFU MAGEB2 (11727129_at) / Fold change /veh MAGEB2 (11727129_at) / RFU TMEM200A (11744735_a_at) / Fold change /veh TMEM200A (11744735_a_at) / RFU CCDC152 (11751479_a_at) / Fold change /veh CCDC152 (11751479_a_at) / RFU FAM211A (11726209_a_at) / Fold change /veh FAM211A (11726209_a_at) / RFU RGS16 (11746705_a_at) / Fold change /veh RGS16 (11746705_a_at) / RFU VCAN (11755009_s_at) / Fold change /veh VCAN (11755009_s_at) / RFU RHOB (11743442_s_at) / Fold change /veh RHOB (11743442_s_at) / RFU RGS16 (11720943_a_at) / Fold change /veh RGS16 (11720943_a_at) / RFU RGS16 (11720944_at) / Fold change /veh RGS16 (11720944_at) / RFU, VPS4B / Fold change vs veh, VPS4B / RFU, CREB1 / Fold change vs veh, CREB1 / RFU, DNAJC13 / Fold change vs veh, DNAJC13 / RFU, GNAQ / Fold change vs veh, GNAQ / RFU, CDK5R1 / Fold change vs veh, CDK5R1 / RFU, ZRANB3 / Fold change vs veh, ZRANB3 / RFU, CUL4A / Fold change vs veh, CUL4A / RFU, CCNY / Fold change vs veh, CCNY / RFU, UFL1 / Fold change vs veh, UFL1 / RFU, COG3 / Fold change vs veh, COG3 / RFU, DIAPH2 / Fold change vs veh, DIAPH2 / RFU, SKA2 / Fold change vs veh, SKA2 / RFU, AFF3 / Fold change vs veh, AFF3 / RFU, LMF1 / Fold change vs veh, LMF1 / RFU, IPO11 / Fold change vs veh, IPO11 / RFU, DFFB / Fold change vs veh, DFFB / RFU, FOXP1 / Fold change vs veh, FOXP1 / RFU, CARD8 / Fold change vs veh, CARD8 / RFU, STRN3 / Fold change vs veh, STRN3 / RFU, ADK / Fold change vs veh, ADK / RFU, RASSF2 / Fold change vs veh, RASSF2 / RFU, WIPF1 / Fold change vs veh, WIPF1 / RFU, LARP1B / Fold change vs veh, LARP1B / RFU, RASA1 / Fold change vs veh, RASA1 / RFU, RB1 / Fold change vs veh, RB1 / RFU, PPFIA1 / Fold change vs veh, PPFIA1 / RFU, MAT2A / Fold change vs veh, MAT2A / RFU, CCT5 / Fold change vs veh, CCT5 / RFU, WDR92 / Fold change vs veh, WDR92 / RFU, CUX1 / Fold change vs veh, CUX1 / RFU, TTC7A / Fold change vs veh, TTC7A / RFU, TMEM135 / Fold change vs veh, TMEM135 / RFU, DEPTOR / Fold change vs veh, DEPTOR / RFU, CPM / Fold change vs veh, CPM / RFU, DNAJB6 / Fold change vs veh, DNAJB6 / RFU, CACNA2D3 / Fold change vs veh, CACNA2D3 / RFU, DTX4 / Fold change vs veh, DTX4 / RFU, TFCP2 / Fold change vs veh, TFCP2 / RFU, GMCL1 /// GMCL1P1 / Fold change vs veh, GMCL1 /// GMCL1P1 / RFU, AEBP2 / Fold change vs veh, AEBP2 / RFU, SNHG1 /// SNORD22 /// SNORD25 /// SNORD26 /// SNORD27 /// SNORD28 /// SNORD29 /// SNORD31 / Fold change vs veh, SNHG1 /// SNORD22 /// SNORD25 /// SNORD26 /// SNORD27 /// SNORD28 /// SNORD29 /// SNORD31 / Fold change (Aza/veh), C12orf56 (ProbeSet 11735607_a_at) / Fold change (ACY-1035/veh), C12orf56 (ProbeSet 11735607_a_at) / Fold change (Aza/veh), FGFR1OP (ProbeSet 11751329_s_at) / Fold change (ACY-1035/veh), FGFR1OP (ProbeSet 11751329_s_at) / Fold change (Aza/veh), VPS36 (ProbeSet 11739960_a_at) / Fold change (ACY-1035/veh), VPS36 (ProbeSet 11739960_a_at) / RFU SYPL1 (11715823_x_at) / Fold change /veh SYPL1 (11715823_x_at) / RFU IGFBP7 (11715501_s_at) / Fold change /veh IGFBP7 (11715501_s_at) / RFU REEP3 (11722064_at) / Fold change /veh REEP3 (11722064_at) / RFU IGLL1 (11728026_x_at) / Fold change /veh IGLL1 (11728026_x_at): dose or concentration left out as unconfirmed
Details: MV-4-11 cells, 48 hours

Nc1ncn([C@@H]2O[C@H](CO)[C@@H](O)[C@H]2O)c(=O)n1 [azacitidine]
Fold change /veh FAM167A (11723789_a_at): 1.19
